{"source": "patent US20260001910A1", "about": "“PEPTIDES AND USES THEREOF” (PreveCeutical Medical Inc., priority 2021, published 2026)", "type_in_all_cases": "cell-based, human", "key": {"[1]": {"test_system": "MMP-2", "experiment": "Gelatin zymography of conditioned media (metalloprotease production)", "conditions": "for MMP-2 production: conditioned medium, compared to no-peptide control", "excerpt": "(§1) To assess whether the peptide SEQ ID NO. 1 impacted MMP-2, MMP-9 and uPA production Zymography was used.\n(§2) Zymography is a technique for studying hydrolytic enzymes on the basis of substrate degradation (Vandooren, J. et al. 2013). The in-gel zymography hydrolytic enzymes are separated by their molecular weights and detected by their ability to degrade a substrate. To detect the activity of MMP-2 and MMP-9 in various cell lines, conditioned media were collected in 3 independent experiments and analysed by gelatin zymography to quantify the level of gelatin digestion, which reflects MMP-2 and MMP-9 activity and production. Cascin-Plasminogen zymography was conducted to determine the activity level of uPA in the conditioned medium from various cell lines. Active uPA converts plasminogen into plasmin which then digests casein, thus clear bands where digestion of casein have occurred indirectly represent uPA activity.\n(§3) The effect of the peptides on matrix protease production was tested using in-gel zymography. If the substrate included in the gel is gelatin, the enzymes detected are gelatinases: MMP-2 and MMP-9 (the latter is often of low abundance). If the gel contains casein and plasminogen, the enzymes tested are urokinase plasminogen activators (uPA); uPA is a therapeutic target in GBM.\n(§4) An equal amount of protein from each sample was mixed with 5 μL of Laemmli buffer (0.01% Bromophenol Blue (W/V), 5% SDS (W/V), 22% glycerol (V/V), 14% 0.5 M Tris pH 6.8 (V/V)) and loaded onto a 10% polyacrylamide gel co-polymerized with 1 mg/ml of gelatin, and electrophoresed at 120V for 2 hours on ice. The gel was incubated in […] solution (Triton X-100 2.5% (V/V), 1 M Tris pH 7.5 5% (V/V), 0.5 M CaCl2) 1% (W/V) at room temperature overnight on an orbital shaker. The gel was incubated in a second solution for 3 hours at 37° C. The gel was then stained with Coomassie blue solution (Coomassie blue 0.25%, methanol 45%, acetic acid 10%) and destained in methanol 25% (V/V), acetic acid 10% (V/V) destaining solution until clear bands against the dark background appeared around 72 kDa and 95 kDa, representing MMP-2 and MMP-9 activity, respectively. Clear bands around 50 kDa appeared against the dark background representing uPA activity. The gels were scanned, and uPA, MMP-2 and MMP-9 were quantified by densitometry using NIH Image J software.\n(§5) SEQ ID NO. 1 was compared to a control containing no peptide to evaluate whether the peptide can reduce the production of matrix proteinases. A reduction in the production of matrix proteinases may be anticipated to result in comparatively less degradation of the extra-cellular matrix and so this could be one pathway by which the invasion potential could be reduced."}, "[2]": {"test_system": "MMP-9", "experiment": "Gelatin zymography of conditioned media (metalloprotease production)", "conditions": "conditioned medium, compared to no-peptide control", "excerpt": "as §1, §2, §3, §4, §5"}, "[3]": {"test_system": "CDH-2 (N-cadherin) mRNA", "experiment": "Real time RT-PCR mRNA expression (EMT marker)", "excerpt": "(§6) The real-time reverse transcription polymerase chain reaction (RT-PCR) uses fluorescent reporter molecules to monitor the production of amplification products during each cycle of the PCR reaction. This combines the nucleic acid amplification and detection steps into one homogeneous assay and use of appropriate chemistries and data analysis eliminates the need for Southern blotting or DNA sequencing for amplicon identification. Its simplicity, specificity and sensitivity, together with its potential for high throughput and the ongoing introduction of new chemistries, more reliable instrumentation and improved protocols, has made real-time RT-PCR the benchmark technology for the detection and/or comparison of RNA levels.′\n(§7) In order to detect and quantify the expression of specific genes at mRNA level, real-time reverse transcriptase polymerase chain reaction (Real time RT-PCR) was performed. Total RNA of samples was isolated and purified using the PureLink® RNA Mini Kit (Life technologies). The concentration of total RNA was detected by NanoDrop 2000 Spectrophotometer (Thermo Scientific). The total RNA (2000 ng) was reverse transcribed using the High-Capacity cDNA Reverse Transcription Kit (Applied Biosystems™).\n(§8) The primers of target genes were TaqMan™ Gene Expression Assay for human PLAU (Hs01547054_m1), MMP-2 (Hs01548727_ml), MMP-9 (Hs00957562_m1), Snail-1 (Hs00195591_m1), Snail-2 (Hs00161904_m1), N-cadherin (Hs00983056_m1) and Twist (Hs01675818_s1). Relative quantification was done by reference to 18S ribosomal RNA (18S rRNA) and analysed using the comparative critical threshold (Ct) method\n(§9) The mRNA expression of MMPs was measured using qRT-PCR. This was tested three independent times; the results are shown in Tables 8, 9 and 10 for U251, U87 cells and 081024 cells respectively. Results are reported as percent of the control cells (no treatment). SEQ ID NO.\n(§10) Epithelial-mesenchymal transition (EMT) is the process by which epithelial cells acquire a migratory (metastatic) phenotype and so EMT is associated with cancer metastasis, cancer cell stemness, chemoresistance and immune resistance. Therefore, the determination of the mRNA expression of EMT markers is a valuable tool to evaluate invasion potential of cancer cells.\n(§11) The ‘Snail’ superfamily is involved in cell differentiation and survival, two processes central in cancer research. Snail-1 has a pivotal role in the regulation of epithelial-mesenchymal transition (EMT) and Snail-1 expression is associated with poor prognosis in metastatic cancer, and tumours with elevated Snail-1 expression are harder to treat. The significance of Snail-1 as a prognostic indicator, its involvement in the regulation of EMT and metastasis, and its roles in both drug and immune resistance point out that Snail-1 is an attractive target for tumour growth inhibition and a target for sensitization to cytotoxic drugs (Kaufhold et al., 2014). Twist is transcriptionally active during cell differentiation and lineage determination. During the establishment of cancer metastases by EMT, Twist acts independently of Snail to suppress E-cadherin and to upregulate N-cadherin (CDH-2) and fibronectin. Snail-2 (Slug) is another member of the SNAIL family of transcriptional activators and serves an important role in suppressing the epithelial phenotype in numerous cancer cells (Iwadate, 2016)."}, "[4]": {"test_system": "Snail-1 mRNA", "experiment": "Real time RT-PCR mRNA expression (EMT marker)", "excerpt": "as §6, §7, §8, §9, §10, §11"}, "[5]": {"test_system": "Snail-2 mRNA", "experiment": "Real time RT-PCR mRNA expression (EMT marker)", "excerpt": "as §6, §7, §8, §9, §10, §11"}, "[6]": {"test_system": "Twist mRNA", "experiment": "Real time RT-PCR mRNA expression (EMT marker)", "excerpt": "as §6, §7, §8, §9, §10, §11"}, "[7]": {"conditions": "081024 cells, baseline expression level = 1"}, "[8]": {"conditions": "U87 cells, baseline expression level = 1"}, "[9]": {"conditions": "U251 cells, relative to untreated control, 18S rRNA reference"}}, "data": [{"smiles": "CC(C)C[C@@H](NC(=O)[C@@H](Cc1ccccc1)NC(=O)CNC(=O)CNC(=O)[C@H](N)Cc1ccc(O)cc1)C(=O)N[C@H](CCCNC(=N)N)C(=O)N[C@H](CCCNC(=N)N)C(N)=O", "note": "[SEQ ID NO. 1, tyr-Gly-Gly-phe-leu-arg-arg-NH2]", "values": [{"measurement": "MMP-2 production", "setting": "[1]; 081024 cells", "result": 100.50}, {"measurement": "MMP-2 production", "setting": "[1]; U87 cells", "result": 91.11}, {"measurement": "MMP-2 production", "setting": "[1]; U251 cells", "result": 97.13}, {"measurement": "effect on production of MMP-2 (in words)", "setting": "[1]; overall, versus no-peptide control", "result": "did not decrease the production"}, {"measurement": "MMP-9 production", "setting": "[2]; 081024 cells", "result": 101.4}, {"measurement": "MMP-9 production", "setting": "[2]; U87 cells", "result": 67.83}, {"measurement": "MMP-9 production", "setting": "[2]; U251 cells", "result": 65.41}, {"measurement": "CDH-2 mRNA expression", "setting": "[3]; [7]", "result": 0.72}, {"measurement": "CDH-2 mRNA expression", "setting": "[3]; [8]", "result": 0.83}, {"measurement": "CDH-2 mRNA expression", "setting": "[3]; [9]", "result": 0.88}, {"measurement": "Snail-1 mRNA expression", "setting": "[4]; [7]", "result": "halved the expression of Snail-1 mRNA with statistical significance"}, {"measurement": "Snail-1 mRNA expression", "setting": "[4]; 081024 cells, baseline expression level = 1, listed as SEQ ID NO.1", "result": 0.53}, {"measurement": "Snail-1 mRNA expression", "setting": "[4]; [8]", "result": 0.65}, {"measurement": "Snail-1 mRNA expression", "setting": "[4]; [9]", "result": 1.11}, {"measurement": "Snail-2 mRNA expression", "setting": "[5]; [7]", "result": 0.78}, {"measurement": "Snail-2 mRNA expression", "setting": "[5]; [8]", "result": 1.05}, {"measurement": "Snail-2 mRNA expression", "setting": "[5]; [9]", "result": 1.06}, {"measurement": "Twist mRNA expression", "setting": "[6]; [7]", "result": 0.73}, {"measurement": "Twist mRNA expression", "setting": "[6]; [8]", "result": 0.70}, {"measurement": "Twist mRNA expression", "setting": "[6]; [9]", "result": 0.87}]}]}
